Assay results taken from BindingDB's records for doi:10.1016/0960-894X(96)00456-8 (1996).

Assay: Compound was evaluated for inhibitory activity against herpes simplex type 2 protease (HSV-2 pr).

O=C1OC(c2ccccc2)=N[C@@]12C[C@@H]2c1ccccc1 [(1R,3R)-1,5-Diphenyl-6-oxa-4-aza-spiro[2.4]hept-4-en-7-one]
IC50: 700 nM

CC(=O)Oc1ccc([C@H]2C[C@@]23N=C(c2ccccc2)OC3=O)cc1 [Acetic acid 4-((1R,3R)-7-oxo-5-phenyl-6-oxa-4-aza-spiro[2.4]hept-4-en-1-yl)-phenyl ester]
IC50: 1200 nM
